Here are results for three compounds from US9023789B2, “Amylin analogs and pharmaceutical compositions thereof” (Novo Nordisk A/S, priority 2012, dated 2015).

Data set [1] deals with T1, human amylin receptor (membranes from Amylin 3(a)/CRE-luc cells) (Homo sapiens, UniProt O60896+P30988).
T1 construct: expressed in transfected cells
T1 sequence (P30988 25-474): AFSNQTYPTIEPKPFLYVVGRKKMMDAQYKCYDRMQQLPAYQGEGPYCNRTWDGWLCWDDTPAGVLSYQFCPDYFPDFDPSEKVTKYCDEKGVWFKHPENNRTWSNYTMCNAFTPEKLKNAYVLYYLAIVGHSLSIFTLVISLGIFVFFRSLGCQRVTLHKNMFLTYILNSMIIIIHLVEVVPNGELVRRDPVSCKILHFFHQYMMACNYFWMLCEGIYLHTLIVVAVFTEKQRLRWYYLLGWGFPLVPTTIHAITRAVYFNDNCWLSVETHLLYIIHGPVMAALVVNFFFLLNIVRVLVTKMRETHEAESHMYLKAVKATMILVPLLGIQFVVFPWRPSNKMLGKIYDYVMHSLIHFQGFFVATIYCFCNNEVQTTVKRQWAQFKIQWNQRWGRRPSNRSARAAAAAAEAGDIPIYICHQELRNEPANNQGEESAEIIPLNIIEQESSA
T1 sequence (O60896 24-148 partner): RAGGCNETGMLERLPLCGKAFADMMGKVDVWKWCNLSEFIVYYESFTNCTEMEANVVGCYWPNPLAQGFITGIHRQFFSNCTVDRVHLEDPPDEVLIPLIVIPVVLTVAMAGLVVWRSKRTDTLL
As to the kind of experiment: ASSAY (V) binding to the human amylin receptor (SPA, 125I-rat amylin).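 Note: competition binding of cell membranes (35 ng/µL) mixed with SPA beads in 384-well plates at 40 µL total volume, read by scintillation counting.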

Data set [2] in a line: ASSAY (IV) determination of solubility. It counts as physicochemical. The essentials: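 Polypeptide stock in water ([…]) was mixed 1:1 with 100 mM buffers: glycylglycine at pH 3.0, 4.0, 5.0 and bistrispropane at pH 6.0, 6.5, 7.0, 7.5, 8.0. After 18 hours at room temperature, samples were centrifuged and polypeptide concentration measured by UPLC.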
A further data set concerns the target T2, rat calcitonin receptor (Rattus norvegicus, UniProt P32214).
T2 construct: expressed in transfected cells; host or cells: BHK tk'ts 13 (transient, FuGENE 6), membranes
T2 sequence (P32214 25-479 isoform P32214-2 limits assumed): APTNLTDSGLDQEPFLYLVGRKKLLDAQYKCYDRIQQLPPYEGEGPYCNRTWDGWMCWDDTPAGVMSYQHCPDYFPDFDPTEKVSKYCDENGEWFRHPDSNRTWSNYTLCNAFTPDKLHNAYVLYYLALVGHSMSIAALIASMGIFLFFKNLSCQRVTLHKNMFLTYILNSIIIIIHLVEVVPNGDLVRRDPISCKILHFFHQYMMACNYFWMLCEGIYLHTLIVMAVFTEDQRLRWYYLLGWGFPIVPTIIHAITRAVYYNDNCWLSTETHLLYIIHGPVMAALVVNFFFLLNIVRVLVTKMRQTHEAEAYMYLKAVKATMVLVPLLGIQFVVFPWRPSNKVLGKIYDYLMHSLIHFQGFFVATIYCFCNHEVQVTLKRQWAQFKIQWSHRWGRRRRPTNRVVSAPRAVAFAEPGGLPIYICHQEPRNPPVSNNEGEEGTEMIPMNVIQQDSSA
As to the kind of experiment: ASSAY (VIII) binding to the rat calcitonin receptor. The following applies: Table 7, read-out: rCTR bind IC50. The essentials:
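Transfect BHK tk′ts 13 cells transiently with rat calcitonin receptor, culture in DMEM containing 10% FBS, collect cells about 48 hours later, then prepare membranes.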

The mark [3] stands for this setting: Table 5, selectivity, hCTR bind IC50 / hAmylin-R bind IC50.
The mark [4] stands for this setting: Table 5a, selectivity, hCTR bind IC50 / hAmylin-R bind IC50.
The mark [5] stands for this setting: Table 5b, selectivity, hCTR bind IC50 / hAmylin-R bind IC50.
Setting [6] is: Table 5c, selectivity, hCTR bind IC50 / hAmylin-R bind IC50.
[7] abbreviates: Table 7, human binding selectivity, included for comparison.
The mark [8] stands for this setting: Table 7a (preferred compounds), human binding selectivity, included for comparison.
Setting [9] is: ratio of human calcitonin receptor binding IC50 to human amylin receptor binding IC50.
[10] abbreviates: bistrispropane buffer, pH 6.5, read-out: Solubility pH 6.5 Concentration.
Setting [11] is: bistrispropane buffer, pH 7.5, read-out: Solubility pH 7.5 Concentration.
The mark [12] stands for this setting: bistrispropane buffer, pH 6.0, read-out: Solubility pH 6.0 Concentration.
[13] abbreviates: bistrispropane buffer, pH 7.0, read-out: Solubility pH 7.0 Concentration.
Setting [14] is: bistrispropane buffer, pH 8.0, read-out: Solubility pH 8.0 Concentration.
The mark [15] stands for this setting: glycylglycine buffer, pH 3.0, read-out: Solubility pH 3.0 Concentration.
[16] abbreviates: glycylglycine buffer, pH 4.0, read-out: Solubility pH 4.0 Concentration.
The mark [17] stands for this setting: glycylglycine buffer, pH 5.0, read-out: Solubility pH 5.0 Concentration.

For orientation: IC50 means the midpoint of a concentration-inhibition curve.

Molecules are shown by their SMILES. Where two headings read alike, the source gives them in different places. Numbered stars: 1 amine (or outer) side, 2 acyl side, 3 side chain; on linkers, the order of the positions; unused ones are H or OH. Bridge positions count the residues as written; N and C are the ends. Side chains are listed from the residue outwards. Peptide text beside a SMILES is read from it. * marks the point of attachment. C20 diacid = O=C(O)CCCCCCCCCCCCCCCCCCC(=O)*; γGlu = O=C(O)[C@H](CCC(=O)[*:2])N[*:1]; AEEA = NCCOCCOCC(=O)O

Regarding `CC[C@H](C)[C@H](NC(=O)[C@H](C)NC(=O)CNC(=O)[C@H](Cc1ccccc1)NC(=O)[C@H](CC(N)=O)NC(=O)[C@@H]1CCCN1C(=O)[C@H](CO)NC(=O)[C@H](CO)NC(=O)[C@H](Cc1c[nH]cn1)NC(=O)[C@H](CCCNC(=N)N)NC(=O)[C@H](CC(C)C)NC(=O)[C@H](Cc1ccccc1)NC(=O)[C@H](CCC(=O)O)NC(=O)[C@H](C)NC(=O)[C@H](CC(C)C)NC(=O)[C@H](CCCNC(=N)N)NC(=O)[C@H](CCC(N)=O)NC(=O)[C@@H](NC(=O)[C@H](C)NC(=O)[C@@H]1CSSC[C@H](NC(=O)[C@H](CCCCN)NC(=O)COCCOCCNC(=O)COCCOCCNC(=O)CC[C@H](NC(=O)CCCCCCCCCCCCCCCCCCC(=O)O)C(=O)O)C(=O)N[C@@H](CC(N)=O)C(=O)N[C@@H]([C@@H](C)O)C(=O)N[C@@H](C)C(=O)N[C@@H]([C@@H](C)O)C(=O)N1)[C@@H](C)O)C(=O)N1CCC[C@H]1C(=O)N[C@@H](CO)C(=O)N[C@@H](CO)C(=O)N[C@H](C(=O)N[C@@H](CC(N)=O)C(=O)N[C@H](C(=O)NCC(=O)N[C@@H](CO)C(=O)N[C@@H](CC(N)=O)C(=O)N[C@H](C(=O)N[C@@H](Cc1ccc(O)cc1)C(N)=O)[C@@H](C)O)C(C)C)[C@@H](C)O` [Example 19], the “Ratio hCT/hAmylin binding” value in data set [1] (setting [3]), in data set [1] (setting [4]), in data set [1] (setting [5]), in data set [1] (setting [6]), in data set [1] (setting [7]) and in data set [1] (setting [8]) was 36.7 throughout. The “Ratio hCT/hAmylin binding” value in data set [1] (setting [9]) amounted to 36.7. Also, the solubility at 18 h in data set [2] (setting [10]), in data set [2] (setting [11]), in data set [2] (setting [12]), in data set [2] (setting [13]), in data set [2] (setting [14]) and in data set [2] (setting [15]) was at least 200 µM each time. Moreover, the solubility at 18 h in data set [2] (setting [16]) and in data set [2] (setting [17]) was at least 200 µM throughout. In addition, the IC50 at rat calcitonin receptor is 95.6 nM.

For the compound `CC[C@H](C)[C@H](NC(=O)[C@H](C)NC(=O)CNC(=O)[C@H](Cc1ccccc1)NC(=O)[C@H](CC(N)=O)NC(=O)[C@@H]1CCCN1C(=O)[C@H](CO)NC(=O)[C@H](CO)NC(=O)[C@H](Cc1c[nH]cn1)NC(=O)[C@H](CCCNC(=N)N)NC(=O)[C@H](CC(C)C)NC(=O)[C@H](Cc1ccccc1)NC(=O)[C@H](CC(N)=O)NC(=O)[C@H](C)NC(=O)[C@H](CC(C)C)NC(=O)[C@H](CCCNC(=N)N)NC(=O)[C@H](CCC(N)=O)NC(=O)[C@@H](NC(=O)[C@H](C)NC(=O)[C@@H]1CSSC[C@H](NC(=O)[C@@H](N)CCCCNC(=O)COCCOCCNC(=O)CC[C@H](NC(=O)CCCCCCCCCCCCCCCCCCC(=O)O)C(=O)O)C(=O)N[C@@H](CC(N)=O)C(=O)N[C@@H]([C@@H](C)O)C(=O)N[C@@H](C)C(=O)N[C@@H]([C@@H](C)O)C(=O)N1)[C@@H](C)O)C(=O)N1CCC[C@H]1C(=O)N[C@@H](CO)C(=O)N[C@@H](CO)C(=O)N[C@H](C(=O)N[C@@H](CC(N)=O)C(=O)N[C@H](C(=O)NCC(=O)N[C@@H](CO)C(=O)N[C@@H](CCC(=O)O)C(=O)N[C@H](C(=O)N[C@@H](Cc1ccc(O)cc1)C(N)=O)[C@@H](C)O)C(C)C)[C@@H](C)O` [Example 26] (H-K([AEEA-γGlu-C20 diacid])CNTATCATQRLANFLRHSSPNFGAIPSSTNVGSETY-NH2; disulfide 2-7; N-terminus assumed), the IC50 in data set [1] (Table 4, read-out: hAmylin-R bind IC50) stood at 0.532 nM; on rat calcitonin receptor it was 152 nM. Besides, the “Ratio hCT/hAmylin binding” value in data set [1] (setting [3]), in data set [1] (setting [4]), in data set [1] (setting [5]), in data set [1] (setting [6]), in data set [1] (setting [7]) and in data set [1] (setting [8]) was 47.5 throughout. Further, the “Ratio hCT/hAmylin binding” value in data set [1] (setting [9]) turned out to be 47.5. The solubility at 18 h in data set [2] (setting [10]), in data set [2] (setting [11]), in data set [2] (setting [12]), in data set [2] (setting [13]), in data set [2] (setting [14]) and in data set [2] (setting [15]) was at least 200 µM in each case. Moreover, the solubility at 18 h in data set [2] (setting [16]) and in data set [2] (setting [17]) was at least 200 µM in each case.

Consider `CC[C@H](C)[C@H](NC(=O)[C@H](C)NC(=O)CNC(=O)[C@H](Cc1ccccc1)NC(=O)[C@H](CC(N)=O)NC(=O)[C@@H]1CCCN1C(=O)[C@H](CO)NC(=O)[C@H](CO)NC(=O)[C@H](Cc1c[nH]cn1)NC(=O)[C@H](CCCNC(=N)N)NC(=O)[C@H](CC(C)C)NC(=O)[C@H](Cc1ccccc1)NC(=O)[C@H](CCC(=O)O)NC(=O)[C@H](C)NC(=O)[C@H](CC(C)C)NC(=O)[C@H](CCCNC(=N)N)NC(=O)[C@H](CCC(N)=O)NC(=O)[C@@H](NC(=O)[C@H](C)NC(=O)[C@@H]1CSSC[C@H](NC(=O)[C@@H](N)CCCCNC(=O)CC[C@H](NC(=O)CCCCCCCCCCCCCCCCCCC(=O)O)C(=O)O)C(=O)N[C@@H](CC(N)=O)C(=O)N[C@@H]([C@@H](C)O)C(=O)N[C@@H](C)C(=O)N[C@@H]([C@@H](C)O)C(=O)N1)[C@@H](C)O)C(=O)N1CCC[C@H]1C(=O)N[C@@H](CO)C(=O)N[C@@H](CO)C(=O)N[C@H](C(=O)N[C@@H](CC(N)=O)C(=O)N[C@H](C(=O)NCC(=O)N[C@@H](CO)C(=O)N[C@@H](Cc1c[nH]cn1)C(=O)N[C@H](C(=O)N[C@@H](Cc1ccc(O)cc1)C(N)=O)[C@@H](C)O)C(C)C)[C@@H](C)O` [Example 128] (H-K([γGlu-C20 diacid])CNTATCATQRLAEFLRHSSPNFGAIPSSTNVGSHTY-NH2; disulfide 2-7 (inferred); N-terminus assumed), for which the “Ratio hCT/hAmylin binding” value in data set [1] (setting [3]), in data set [1] (setting [4]), in data set [1] (setting [5]), in data set [1] (setting [6]), in data set [1] (setting [7]) and in data set [1] (setting [8]) was 26.4 throughout. Also, the “Ratio hCT/hAmylin binding” value in data set [1] (setting [9]) is recorded as 26.4. For the same compound, the solubility at 18 h in data set [2] (setting [10]), in data set [2] (setting [11]), in data set [2] (setting [12]), in data set [2] (setting [13]), in data set [2] (setting [14]) and in data set [2] (setting [15]) was at least 200 µM each time. Further, the solubility at 18 h in data set [2] (setting [16]) and in data set [2] (setting [17]) was at least 200 µM throughout. At rat calcitonin receptor, the IC50 was found to be 26.3 nM.
